Marks after values point to notes of the source that are not given here.
Experiments:
Format in all cases: cell-based
[1] = molecular target: T1, CB2 (Homo sapiens, UniProt P34972, Q63R); assay: β-arrestin 1 translocation real-time BRET assay; settings: HEK 293 cells
[2] = molecular target: T1, CB2; assay: β-arrestin 1 translocation real-time BRET assay; settings: for pEC50, β-arrestin 1 translocation to CB2: HEK 293 cells
[3] = molecular target: T1, CB2; assay: β-arrestin 2 translocation real-time BRET assay, wild-type CB2; settings: for Span, β-arrestin 2 translocation to CB2 / Span, β-arrestin 2 translocation, wild-type CB2: HEK 293 cells
[4] = molecular target: T1, CB2; assay: as above; settings: for pEC50, β-arrestin 2 translocation to CB2: HEK 293 cells
[5] = molecular target: T2, CB2 D356A/D359A (Homo sapiens, UniProt P34972, D356A/D359A/Q63R); assay: β-arrestin 2 translocation BRET assay, CB2 D356A/D359A mutant; settings: for Span, β-arrestin 2 translocation, CB2 D356A/D359A: HEK 293 cells
[6] = molecular target: Wild-type CB2 (Homo sapiens, UniProt P34972, Q63R); assay: G protein dissociation BRET assay, wild-type CB2
[7] = molecular target: T3, CB2 D351A/D354A (Homo sapiens, UniProt P34972, D351A/D354A/Q63R); assay: β-arrestin 2 translocation BRET assay, CB2 D351A/D354A mutant; settings: for Span, β-arrestin 2 translocation, CB2 D351A/D354A: HEK 293 cells
[8] = molecular target: T4, CB2 D351A/D354A/D356A/D359A (Homo sapiens, UniProt P34972, D351A/D354A/D356A/D359A/Q63R); assay: β-arrestin 2 translocation BRET assay, CB2 D351A/D354A/D356A/D359A mutant; settings: for Span, β-arrestin 2 translocation, CB2 D351A/D354A/D356A/D359A: HEK 293 cells
[9] = molecular target: T4, CB2 D351A/D354A/D356A/D359A; assay: G protein dissociation BRET assay, CB2 D351A/D354A/D356A/D359A; settings: HEK 293 cells
[10] = molecular target: T3, CB2 D351A/D354A; assay: G protein dissociation BRET assay, CB2 D351A/D354A
[11] = molecular target: T2, CB2 D356A/D359A; assay: G protein dissociation BRET assay, CB2 D356A/D359A

T4 sequence (P34972 whole entry Q63R/D351A/D354A/D356A/D359A): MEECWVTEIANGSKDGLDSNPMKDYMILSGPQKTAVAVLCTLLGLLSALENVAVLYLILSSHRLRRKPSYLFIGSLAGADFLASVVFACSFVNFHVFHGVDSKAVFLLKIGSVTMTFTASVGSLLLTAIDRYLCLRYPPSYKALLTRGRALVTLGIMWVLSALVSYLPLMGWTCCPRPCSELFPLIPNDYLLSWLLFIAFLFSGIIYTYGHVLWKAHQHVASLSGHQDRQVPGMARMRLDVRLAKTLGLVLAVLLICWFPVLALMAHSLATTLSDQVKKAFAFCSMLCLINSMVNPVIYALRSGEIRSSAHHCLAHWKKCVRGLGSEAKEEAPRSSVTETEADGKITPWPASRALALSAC
T2 sequence (P34972 whole entry Q63R/D356A/D359A): as the sequence (P34972 whole entry Q63R/D351A/D354A/D356A/D359A) above, with A351D, A354D counted along it
Chain of Wild-type CB2 (P34972 whole entry Q63R): as the sequence (P34972 whole entry Q63R/D351A/D354A/D356A/D359A) above, with A351D, A354D, A356D, A359D counted along it
T1 sequence (P34972 whole entry Q63R): as the sequence (P34972 whole entry Q63R/D351A/D354A/D356A/D359A) above, with A351D, A354D, A356D, A359D counted along it
T3 sequence (P34972 whole entry Q63R/D351A/D354A): as the sequence (P34972 whole entry Q63R/D351A/D354A/D356A/D359A) above, with A356D, A359D counted along it

## COC(=O)[C@@H](NC(=O)c1nn(Cc2ccc(F)cc2)c2ccccc12)C(C)C [AMB-FUBINACA]
[1]; coexpression of GRK1
  Span, β-arrestin 1 translocation to CB2: 47.12 (3.44) ^* ΔBRET.s
[1]; coexpression of GRK2
  Span, β-arrestin 1 translocation to CB2: 45.12 (2.90) ^* ΔBRET.s
[1]; coexpression of GRK3
  Span, β-arrestin 1 translocation to CB2: 46.69 (1.39) ^* ΔBRET.s
[1]; coexpression of GRK4
  Span, β-arrestin 1 translocation to CB2: 35.06 (2.32) ΔBRET.s
[1]; coexpression of GRK5
  Span, β-arrestin 1 translocation to CB2: 38.17 (1.55) ΔBRET.s
[1]; coexpression of GRK6
  Span, β-arrestin 1 translocation to CB2: 44.72 (3.21) ^* ΔBRET.s
[1]; mock (no GRK)
  Span, β-arrestin 1 translocation to CB2: 29.34 (2.43) ΔBRET.s
[2]; coexpression of GRK1
  pEC50, β-arrestin 1 translocation to CB2: 7.97 (0.13)
[2]; coexpression of GRK2
  pEC50, β-arrestin 1 translocation to CB2: 8.16 (0.09)
[2]; coexpression of GRK3
  pEC50, β-arrestin 1 translocation to CB2: 8.26 (0.07) ^*
[2]; coexpression of GRK4
  pEC50, β-arrestin 1 translocation to CB2: 7.98 (0.18)
[2]; coexpression of GRK5
  pEC50, β-arrestin 1 translocation to CB2: 7.97 (0.11)
[2]; coexpression of GRK6
  pEC50, β-arrestin 1 translocation to CB2: 8.01 (0.18)
[2]; mock (no GRK)
  pEC50, β-arrestin 1 translocation to CB2: 7.94 (0.10)
[2]; absence of exogenous GRKs
  β-arrestin 1 translocation to CB2 (in words): submaximal translocation
[3]; coexpression of GRK1, Table 2
  Span, β-arrestin 2 translocation to CB2: 134.2 (11.15) ΔBRET.s
[3]; coexpression of GRK2, Table 2
  Span, β-arrestin 2 translocation to CB2: 123.2 (9.45) ΔBRET.s
[3]; coexpression of GRK3, Table 2
  Span, β-arrestin 2 translocation to CB2: 119.0 (9.10) ΔBRET.s
[3]; coexpression of GRK4, Table 2
  Span, β-arrestin 2 translocation to CB2: 126.6 (9.03) ΔBRET.s
[3]; coexpression of GRK5, Table 2
  Span, β-arrestin 2 translocation to CB2: 114.6 (5.98) ΔBRET.s
[3]; coexpression of GRK6, Table 2
  Span, β-arrestin 2 translocation to CB2: 125.8 (10.37) ΔBRET.s
[3]; mock (no GRK), Table 2
  Span, β-arrestin 2 translocation to CB2: 123.9 (8.36) ΔBRET.s
[4]; coexpression of GRK1, Table 2
  pEC50, β-arrestin 2 translocation to CB2: 8.03 (0.06)
[4]; coexpression of GRK2, Table 2
  pEC50, β-arrestin 2 translocation to CB2: 8.28 (0.05) ^*
[4]; coexpression of GRK3, Table 2
  pEC50, β-arrestin 2 translocation to CB2: 8.17 (0.11)
[4]; coexpression of GRK4, Table 2
  pEC50, β-arrestin 2 translocation to CB2: 8.13 (0.03)
[4]; coexpression of GRK5, Table 2
  pEC50, β-arrestin 2 translocation to CB2: 8.07 (0.07)
[4]; coexpression of GRK6, Table 2
  pEC50, β-arrestin 2 translocation to CB2: 8.12 (0.04)
[4]; mock (no GRK), Table 2
  pEC50, β-arrestin 2 translocation to CB2: 8.15 (0.06)
[4]; absence of exogenous GRKs
  β-arrestin 2 translocation to CB2 (in words): submaximal translocation

## CCCCCCC(C)(C)c1ccc([C@@H]2C[C@H](O)CC[C@H]2CCCO)c(O)c1 [CP55940]
[1]; coexpression of GRK1
  Span, β-arrestin 1 translocation to CB2: 86.32 (2.74) ^* ΔBRET.s
[1]; coexpression of GRK2
  Span, β-arrestin 1 translocation to CB2: 79.90 (3.34) ^* ΔBRET.s
[1]; coexpression of GRK3
  Span, β-arrestin 1 translocation to CB2: 79.51 (2.33) ^* ΔBRET.s
[1]; coexpression of GRK4
  Span, β-arrestin 1 translocation to CB2: 64.47 (1.90) ΔBRET.s
[1]; coexpression of GRK5
  Span, β-arrestin 1 translocation to CB2: 70.53 (2.52) ΔBRET.s
[1]; coexpression of GRK6
  Span, β-arrestin 1 translocation to CB2: 66.73 (3.12) ΔBRET.s
[1]; mock (no GRK)
  Span, β-arrestin 1 translocation to CB2: 63.07 (4.10) ΔBRET.s
[5]; coexpression of GRK2
  Span, β-arrestin 2 translocation, CB2 D356A/D359A: 161.84 (5.06) ΔBRET.s
[5]; coexpression of GRK3
  Span, β-arrestin 2 translocation, CB2 D356A/D359A: 188.04 (8.90) ΔBRET.s
[5]; mock
  Span, β-arrestin 2 translocation, CB2 D356A/D359A: 170.18 (6.70)^◊ ΔBRET.s
  reduction in efficacy of β-arrestin 2 translocation versus wild-type CB2: 24%
[6]; 1-μM CP55940
  attenuation of G protein dissociation by addition of β-arrestin 2: over 50%
[6]; HEK 293 cells, + GRK3
  G protein dissociation at 1 μM CP55940: −226.64 (5.63) ΔBRET.s
[6]; HEK 293 cells, + β-arrestin 2
  G protein dissociation at 1 μM CP55940: −97.47 (3.67) ΔBRET.s
  G protein dissociation at 1 μM CP55940, % mock: 45.28 (2.15) % mock
[6]; HEK 293 cells, + β-arrestin 2 + GRK3
  G protein dissociation at 1 μM CP55940: −91.65 (4.04) ΔBRET.s
[6]; HEK 293 cells, mock
  Span, G protein dissociation: −216.50 (8.58) ΔBRET.s
[7]; coexpression of GRK2
  Span, β-arrestin 2 translocation, CB2 D351A/D354A: 147.34 (2.60) ^* ΔBRET.s
[7]; coexpression of GRK3
  Span, β-arrestin 2 translocation, CB2 D351A/D354A: 147.06 (10.88) ΔBRET.s
[7]; mock
  Span, β-arrestin 2 translocation, CB2 D351A/D354A: 132.61 (6.99)^◊ ΔBRET.s
  reduction in efficacy of β-arrestin 2 translocation versus wild-type CB2: 41%
[8]; coexpression of GRK2
  Span, β-arrestin 2 translocation, CB2 D351A/D354A/D356A/D359A: 194.18 (13.37) ^* ΔBRET.s
  increase of β-arrestin 2 translocation response versus mock: 36%
[8]; coexpression of GRK3
  Span, β-arrestin 2 translocation, CB2 D351A/D354A/D356A/D359A: 180.16 (13.23) ^* ΔBRET.s
  increase of β-arrestin 2 translocation response versus mock: 26%
[8]; mock
  Span, β-arrestin 2 translocation, CB2 D351A/D354A/D356A/D359A: 142.57 (8.39)^◊ ΔBRET.s
  reduction of β-arrestin 2 translocation response versus wild-type CB2: 36%
[3]; coexpression of GRK1, Table 2
  Span, β-arrestin 2 translocation to CB2: 183.2 (11.32) ΔBRET.s
[3]; coexpression of GRK2, Table 2
  Span, β-arrestin 2 translocation to CB2: 164.3 (16.29) ^* ΔBRET.s
[3]; coexpression of GRK2, Table 3 (mutant experiments)
  Span, β-arrestin 2 translocation, wild-type CB2: 174.54 (11.90) ^* ΔBRET.s
[3]; coexpression of GRK3, Table 2
  Span, β-arrestin 2 translocation to CB2: 155.0 (9.91) ^* ΔBRET.s
[3]; coexpression of GRK3, Table 3 (mutant experiments)
  Span, β-arrestin 2 translocation, wild-type CB2: 210.00 (2.53) ^* ΔBRET.s
[3]; coexpression of GRK4, Table 2
  Span, β-arrestin 2 translocation to CB2: 176.9 (8.00) ΔBRET.s
[3]; coexpression of GRK5, Table 2
  Span, β-arrestin 2 translocation to CB2: 156.0 (6.71) ^* ΔBRET.s
[3]; coexpression of GRK6, Table 2
  Span, β-arrestin 2 translocation to CB2: 160.6 (8.71) ΔBRET.s
[3]; mock (no GRK), Table 2
  Span, β-arrestin 2 translocation to CB2: 190.2 (12.38) ΔBRET.s
[3]; mock, Table 3 (mutant experiments)
  Span, β-arrestin 2 translocation, wild-type CB2: 222.91 (6.17) ΔBRET.s
[3]; coexpression of GRK2, GRK3 and GRK5 versus mock
  lowering of efficacy of β-arrestin 2 translocation by GRK coexpression: 10–20%
[9]; + GRK3
  G protein dissociation at 1 μM CP55940: −267.49 (4.62)^ⱡ ΔBRET.s
[9]; + β-arrestin 2
  G protein dissociation at 1 μM CP55940: −165.31 (10.19)^◊ ΔBRET.s
  G protein dissociation at 1 μM CP55940, % mock: 67.29 (4.02)^◊ % mock
[9]; + β-arrestin 2 + GRK3
  G protein dissociation at 1 μM CP55940: −155.77 (3.82)^◊ ΔBRET.s
[9]; mock
  Span, G protein dissociation: −246.10 (6.75) ^* ΔBRET.s
[10]; 1-μM CP55940
  attenuation of G protein dissociation by addition of β-arrestin 2: over 50%
[10]; HEK 293 cells, + β-arrestin 2
  G protein dissociation at 1 μM CP55940: −97.62 (4.27) ΔBRET.s
  G protein dissociation at 1 μM CP55940, % mock: 47.86 (1.69) % mock
[10]; HEK 293 cells, mock
  Span, G protein dissociation: −204.02 (5.54) ΔBRET.s
[11]; 1-μM CP55940
  attenuation of G protein dissociation by addition of β-arrestin 2: over 50%
[11]; HEK 293 cells, + β-arrestin 2
  G protein dissociation at 1 μM CP55940: −91.91 (4.94) ΔBRET.s
  G protein dissociation at 1 μM CP55940, % mock: 49.37 (2.63) % mock
[11]; HEK 293 cells, mock
  Span, G protein dissociation: −186.32 (4.70) ^* ΔBRET.s

From PMC12591375 (British journal of pharmacology, 2022)
